Data from ChEMBL document CHEMBL6120988, “Mitochondria-targeting artesunate-rhein conjugates: Linker-modulated cell-permeability, heme-affinity and anticancer activity” (Eur J Med Chem, 2025).
pIC50: −log10 of the molar value. Activity calls are given as the source filed them. The calls are words filed in the database; no cut-off is given here.

How the values were obtained:
[1] = system: 4T1; assay: Induction of immunogenic cell death in mouse 4T1 cells assessed as increase in CRT expression by flow cytometry analysis (reference value: 2.55%); type: functional
[2] = system: 4T1; assay: Immunostimulatory activity in mouse 4T1 cells implanted in female BALB/c mouse assessed as reduction in immunosuppressive CD206+ expression; type: functional, cell-based
[3] = system: 4T1; assay: Cytotoxicty against mouse 4T1 cells assessed as cell viability by MTT assay; type: functional, cell-based
[4] = Drug localization in mitochondria of mouse 4T1 cells assessed as fluorescence intensity measured using pearson co-efficient incubated for 10 hrs by mito-tracker red fluorescent dye based confocal laser scanning microscopic analysis; type: ADME; conditions: 4t1, 10 h
[5] = system: HeLa; assay: Cytotoxicity against human Hela cells assessed as cell viability by MTT assay; type: functional, cell-based
[6] = system: MCF7; assay: Cytotoxicity against human MCF7 cells assessed as cell viability by MTT assay; type: functional, cell-based
[7] = system: 4T1; assay: Induction of apoptosis in mouse 4T1 cells assessed as early apoptotic cells by Annexin V-FITC and PI staining based flow cytometry analysis(reference value: 3.60 %); type: functional
[8] = system: 4T1; assay: Induction of apoptosis in mouse 4T1 cells assessed as necrotic cells by Annexin V-FITC and PI staining based flow cytometry analysis (reference value: 0.085 %); type: functional
[9] = system: 4T1; assay: Induction of mitochondrial dysfunction in mouse 4T1 cells assessed as basal respiration; type: functional, cell-based
[10] = system: 4T1; assay: Induction of ROS production in mouse 4T1 cells assessed as increase in intracellular ROS level by […] staining based flow cytometry (reference value: 7.8%); type: functional
[11] = system: 4T1; assay: Antitumor activity against mouse 4T1 cells allografted in female BALB/c mouse assessed as tumor inhibition rate at 100 mg/kg, po administrated every day for 15 times and measured after 22 days relative to control; type: functional; design: scale not given: the % may be the effect or the level left; conditions: time 22 day
[12] = Toxicity in female BALB/c mouse allografted with mouse 4T1 cells assessed as change in body weight at 10 mg/kg, iv administrated every 3 day for 5 times and measured every 2 days for 22 days relative to control; type: organism-based; conditions: in vivo, 528 h, time 22 day
[13] = system: 4T1; assay: Antitumor activity against mouse 4T1 cells allografted in female BALB/c mouse assessed as reduction in tumor tissue volume at 100 mg/kg, po administrated every day for 15 times and measured after 22 days relative to control; type: functional, organism-based; conditions: time 22.0 day
[14] = system: 4T1; assay: Antitumor activity against mouse 4T1 cells allografted in female BALB/c mouse assessed as reduction in tumor tissue volume at 10 mg/kg, iv administrated every 3 day for 5 times and measured after for 22 days; type: functional, organism-based; conditions: time 22.0 day
[15] = Toxicity in female BALB/c mouse allografted with mouse 4T1 cells assessed as effect on blood platelet at 100 mg/kg, po administrated every day for 15 times and measured after 22 days; type: organism-based; conditions: in vivo, 528 h, time 22 day
[16] = Toxicity against female BALB/c mouse allografted with mouse 4T1 cells assessed as effect on red blood cells at 10 mg/kg, iv administrated every 3 days for 5 times and measured after 22 days; type: organism-based; conditions: in vivo, 528 h, time 22 day
[17] = Toxicity against female BALB/c mouse allografted with mouse 4T1 cells assessed as effect on white blood cells at 100 mg/kg, po administrated every day for 15 times and measured after 22 days; type: organism-based; conditions: in vivo, 528 h, time 22 day
[18] = system: 4T1; assay: Antitumor activity against mouse 4T1 cells allografted in female BALB/c mouse assessed as disappearance of cancer cells at 100 mg/kg, po administrated every day for 15 times and measured after 22 days by H and E staining based analysis; type: functional, organism-based; conditions: time 22.0 day
[19] = Toxicity against female BALB/c mouse allografted with mouse 4T1 cells assessed as mean corpuscular hemoglobin concentration at 10 mg/kg, iv administrated every 3 days for 5 times and measured after 22 days; type: organism-based; conditions: in vivo, 528 h, time 22 day
[20] = Toxicity against female BALB/c mouse allografted with mouse 4T1 cells assessed as mean corpuscular hemoglobin concentration at 100 mg/kg, po administrated every day for 15 times and measured after 22 days; type: organism-based; conditions: in vivo, 528 h, time 22 day
[21] = Toxicity against female BALB/c mouse allografted with mouse 4T1 cells assessed as hemoglobin at 10 mg/kg, iv administrated every 3 days for 5 times and measured after 22 days; type: organism-based; conditions: in vivo, 528 h, time 22 day
[22] = Toxicity against female BALB/c mouse allografted with mouse 4T1 cells assessed as hemoglobin at 100 mg/kg, po administrated every day for 15 times and measured after 22 days; type: organism-based; conditions: in vivo, 528 h, time 22 day
[23] = system: 4T1; assay: Antitumor activity against mouse 4T1 cells allografted in female BALB/c mouse assessed as increase in apoptotic cells at 100 mg/kg, po administrated every day for 15 times and measured after 22 days by TUNEL staining based assay; type: functional, organism-based; conditions: time 22.0 day
[24] = system: 4T1; assay: Antitumor activity against mouse 4T1 cells allografted in female BALB/c mouse assessed as increase in apoptotic cells at 10 mg/kg, iv administrated every 3 day for 5 times and measured after 22 days by TUNEL staining based assay; type: functional, organism-based; conditions: time 22.0 day
[25] = system: 4T1; assay: Induction of immunogenic cell death in mouse 4T1 cells assessed as increase in CRT exposure on cell surface by measuring increase in red fluorescence by CLSM analysis (reference value: 2.55%); type: functional
[26] = system: 4T1; assay: Immunostimulatory activity in mouse 4T1 cells implanted in female BALB/c mouse assessed as increase in immunostimulatory CD86+ expression; type: functional, cell-based
[27] = system: 4T1; assay: Antitumor activity against mouse 4T1 cells allografted in female BALB/c mouse assessed as increase in infiltration of CD3+ CD8+ T lymphocytes in tumors at 10 mg/kg, iv administrated every 3 days for 5 times and measured after 22 days by flow cytometry analysis (reference value: 7.87 %); type: functional; conditions: time 22 day
[28] = system: 4T1; assay: Antitumor activity against mouse 4T1 cells allografted in female BALB/c mouse assessed as increase in infiltration of CD3+ CD8+ T lymphocytes in tumors at 100 mg/kg, po administrated every day for 15 times and measured after 22 days by flow cytometry (reference value: 6.91 %); type: functional; conditions: time 22 day
[29] = Half life in mouse at 100 mg/kg, po; type: ADME, organism-based; conditions: in vivo
[30] = Half life in mouse iv dosed mouse; type: ADME, organism-based; conditions: in vivo
[31] = AUC(0 to t) in mouse at 100 mg/kg, po; type: ADME, organism-based; conditions: in vivo
[32] = AUC(0 to t) in mouse iv dosed mouse; type: ADME, organism-based; conditions: in vivo, dose 10 mg/kg, time 3 day
[33] = Tmax in mouse at 100 mg/kg, po; type: ADME, organism-based; conditions: in vivo
[34] = MRT (0 to infinity) in iv dosed mouse; type: ADME, organism-based; conditions: in vivo
[35] = system: 4T1; assay: Induction of mitochondrial dysfunction in mouse 4T1 cells assessed as coupling efficiency; type: functional, cell-based
[36] = system: 4T1; assay: Induction of mitochondrial dysfunction in mouse 4T1 cells assessed as ATP production; type: functional, cell-based
[37] = system: 4T1; assay: Induction of mitochondrial dysfunction in mouse 4T1 cells assessed as maximum respiration; type: functional, cell-based
[38] = system: 4T1; assay: Cytotoxicty against mouse 4T1 cells assessed as cell death by measuring red staining by calcein/PI staining based live/dead staining analysis; type: functional

With `C[C@H]1[C@H](OC(=O)CCC(=O)OCCCCOC(=O)c2cc(O)c3c(c2)C(=O)c2cccc(O)c2C3=O)O[C@@H]2O[C@@]3(C)CC[C@H]4[C@H](C)CC[C@@H]1[C@@]24OO3` the Activity [1] was 32.82%, the Activity [2] was “Active” and the pIC50 [3] was 5.95. It also gave a Flu intensity [4] of 0.96, a pIC50 [5] of 5.61 and a pIC50 [6] of 5.72. For the same compound, the Activity [7] was 34.8%, the Activity [8] was 0.27% and the Activity [9] was “Active”. For the same compound, the Activity [10] was 42.5%, the Activity [11] was 76.84% and the Activity [12] was “Non-toxic”. For the same compound, the Activity [13] was “Active; Tumor Lighter Weight Than Pbs Treatment”, the Activity [14] was “Active” and the Activity [15] was “Non-toxic”. The Activity [16] was “Non-toxic”, the Activity [17] was “Non-toxic” and the Activity [18] was “Active”. For the same compound, the Activity [19] was “Non-toxic”, the Activity [20] was “Non-toxic” and the Activity [21] was “Non-toxic”. The Activity [22] was “Non-toxic”, the Activity [23] was “Active” and the Activity [24] was “Active”. The Activity [25] was “Active”, the Activity ([25]; record 2) was 32.82% and the Activity [26] was “Active”. The Activity [27] was 15.33%, the Activity [28] was 15.4% and the half-life [29] was 5.15 h. For the same compound, the half-life [30] was 7.01 h, the AUC(0-t) [31] was 18200 ng·h/mL and the AUC(0-t) at 72 h [32] was 11500 ng·h/mL. The Tmax [33] was 3 h, the MRT inf [34] was 7.67 h and the Activity [35] was “Active”. For the same compound, the Activity [36] was “Active”, the Activity [37] was “Active” and the Activity [38] was “Active”.
